Tested on: RLE-6TN cells
Assay: RLE-6TN cell survival under hyperoxia, viable cells by trypan blue exclusion
Type: cell-based, rat
Procedure: FIG. 7. […] The cells were cultured in DMEM/F12 with 10% FBS in 21% O2 and 5% CO2 overnight. […] The viable cells are counted immediately after 72-hour hyperoxia exposure. Cell viability is assessed with trypan blue. Viable cells under specific conditions are presented as a percentage of the cell number from hyperoxia alone. Data are mean±s.d. of four independent experiments with *=P<0.05; **=P<0.01.
FIG. 8. […] In both (A) and (B), the number of viable cells under specific conditions is presented as a percentage of the cell number related to hyperoxia alone in the same experiment. Data are mean±s.d. of four independent experiments with *=P<0.05; **=P<0.01.
FIG. 10. HO-1 Upregulation is required for T3-increased RLE-6TN cell survival in hyperoxia. […] The cells were then collected for Western Blot analysis. (B) The cells were incubated in 21% O2 and 5% CO2 for 72 hours in the present of HO-1 inhibitor Tin Protoporphyrin IX(10^−6 M) tinT3 (10^−6 M). […] Cell viability is assessed with trypan blue. The number of viable cells under specific conditions is presented as a percentage of the cell number related to hyperoxia alone. Data are mean±s.d. of three independent experiments with *=P<0.05; **=P<0.01.
FIG. 11. PI3K inhibitor wortmannin blocked T3-induced cell survival in hyperoxia. […] Cell viability is assessed with trypan blue. The number of viable cells under specific conditions is presented as a percentage of the cell number related to hyperoxia alone. Data are mean±s.d. of four independent experiments with *=P<0.05; **=P<0.01.
At the end of the hyperoxia exposure period, the viable cells were counted by trypan blue dye exclusion.

Row | Compound | Effect on AT2 cell number in room air (21% O2 72 hours, 10^−6 M) | Effect on T3-caused increase in cell survival in hyperoxia (90% O2 72 hours, T3 10^−6 M, Tin Protoporphyrin 10^−6 M) | Effect on cell survival under hyperoxia (90% oxygen 72 hours, 10^−6 M)
1 | C=Cc1c2[n-]c(c1C)/C=c1\[n-]/c(c(C)c1C=C)=C\c1[n-]c(c(CCC(=O)O)c1C)C=c1[n-]/c(c(C)c1CCC(=O)O)=C\2.[Sn+4] [Tin protoporphyrin, Tin Protoporphyrin IX] | had no effect on AT2 cell number in room air | blocked the T3-caused increase in cell survival and augmented cell death | 
2 | N[C@@H](Cc1ccc(Oc2cc(I)c(O)c(I)c2)c(I)c1)C(=O)O [rT3] |  |  | had no role in cell survival

Source: patent US12569459B2, “Compositions and methods for treating pulmonary edema or lung inflammation” (priority 2020, dated 2026)
